Read-outs that look alike come from different tables or passages of the source.

The target in data set [1] is T1, WT c-Src (Gallus gallus (Chicken), UniProt P00523). Briefly: In vitro kinase assay, WT c-Src. It is filed as biochemical. As to conditions: inhibitor preincubated with Src ten minutes prior to addition of ATP; read-out: WT c-Src IC50. On the procedure:
(§1) In vitro kinase assays for c-Src variants were performed in 50 mM Tris (pH 8.0), 10 mM MgCl2 and 1 mg/mL BSA. When obtaining kinetic parameters (kcat, Km) kinase and peptide substrate (IYGEFKKK) (SEQ ID NO:51) concentrations were 2 nM and 500 μM, respectively, while ATP concentrations ranged from 2000-0.655 μM. Addition of nonradioactive ATP supplemented with ^32P ATP (3,000 Ci/mmol, NEN) was used to initiate kinase reactions. Time points were selected such that product formation never exceeded 10%. Reactions were quenched by spotting 3 μL quantities onto phosphocellulose sheets (P81, Whatman). Afterwards, the sheets were washed 3×5 minutes in 0.5% phosphoric acid and dried. Radioactivity was measured by phosphorimaging and recorded on a Typhoon fluorescence imager (Molecular Dynamics). Data were plotted as rate (min^−1) versus ATP concentration and fitted to the Michaelis-Menten equation, v=[(kcat)[S]]/(Km+[S]), using Kaleidagraph software (Synergy) to extract kinetic parameters. When obtaining IC50 values for the inhibitors, 2% (v/v) DMSO was included in kinase reactions. In these cases ATP, peptide, and enzyme concentrations were 15 nM, 100 μM and 5 nM, respectively, while inhibitor concentrations ranged from 10,000-0.610 nM. In all cases, a ten-minute preincubation step between the kinase and the inhibitor preceded addition of ATP and a fifteen-minute reaction. The data was fitted to a sigmoidal dose-response curve using Prism 4.0c (GraphPad Software) to obtain IC50 values.

The target in data set [2] is T2, T338C c-Src (Gallus gallus (Chicken), UniProt P00523, T338C). Briefly: In vitro kinase assay, T338C c-Src (c-Src-ES1). In kind it is biochemical. On the procedure:
as §1, with “In all cases, a ten-minute preincubation step between the kinase and the inhibitor preceded addition of ATP and a fifteen-minute reaction.” left out

Another data set can be described thus: Toxicity profiles (LD50). Particulars: FIG. 17-19.
For the next data set, the target named is c-Src-ES2 (T338C/V323A) (Gallus gallus (Chicken), UniProt P00523, T338C/V323A). Briefly: In vitro kinase assay, c-Src-ES2. It is filed as biochemical. The procedure:
as §1

The target in the next data set is c-Src-ES3 (T338C/V323S) (Gallus gallus (Chicken), UniProt P00523, T338C/V323S). Briefly: In vitro kinase assay, c-Src-ES3. In kind it is biochemical. As to conditions: ES3 = T338C/V323S; read-out: c-Src variant IC50 (nM) ES3. The procedure:
as §1

The next data set concerns the target v-Src-ES1 (I338C) (Rous sarcoma virus (strain H-19), UniProt P25020, I338C). Briefly: Inhibition assay with v-Src-ES1 transformed NIH-3T3 cells. In kind it is cell-based. The procedure:
(§2) Curr Biol 8(5):257-266. Cells were grown to 60-90% confluence in DMEM supplemented with fetal bovine serum (10%), penicillin ‘G’ (100 units/ml) and streptomycin sulfate (100 μg/ml) (PenStrep, UCSF Cell Culture Facility) prior to treatment with kinase inhibitors dissolved in DMSO (final DMSO concentration, 0.5%). Following 1 hour of incubation with inhibitors at 37° C., cells were harvested in lysis buffer (50 mM Tris (pH 7.4), 300 mM NaCl, 5 mM EDTA, 1% triton, 0.02% NaN3, 1× complete mini protease inhibitor (Roche), 1 mM PMSF, 1×PHOS-stop (Roche), 0.02 μM microcystin, 2 mM sodium orthovanadate), normalized for concentration and analyzed by Western blot for global phosphotyrosine levels (4G10, Millipore, 1:1000). Levels of β-actin (β-actin Antibody, Cell Signaling, 1:1000) and v-Src (Src 32G6 rabbit mAb, Cell Signaling, 1:1000) were ascertained by Western blot.
(§3) I338C (v-Src-ES1, SEQ ID NO:48), I338T (SEQ ID NO:49), I338G (v-Src-AS1, SEQ ID NO:50) and WT v-Src-transformed NIH-3T3 cell lines were generated. Unlike c-Src, v-Src is constitutively active and harbors an isoleucine gatekeeper. The I338T v-Src variant was generated for consistency with the in vitro c-Src studies. For each cell line, global levels of phosphotyrosine were analyzed (FIG. 7). […]

In a further data set the target is I338T v-Src (Rous sarcoma virus (strain H-19), UniProt P25020, I338T). It is filed as cell-based. On the procedure: as §2, §3
Data set [3] has as its target T2, T338C c-Src. Description: Gel filtration and kinetic assay, T338C c-Src. In kind it is biochemical. As to conditions: 23 μM inhibitor, 25 minutes, then PD10 desalting. The procedure:
(§4) Inhibitors (final concentration 23 μM) were incubated with c-Src variants (final concentration 11.5 μM) in kinase reaction buffer (50 mM Tris pH 8, 100 mM NaCl, 1 mM DTT, 5% glycerol, 5% DMSO) for 25 minutes at room temperature. The solutions (2.6 mL total) were then passed over PD10 desalting columns (GE Healthcare) using the kinase reaction buffer for elution. Src concentrations were calculated using the extinction coefficient for c-Src (51.140 mM^−1cm^−1) {Seeliger, 2005 #100}. Kinase assays were performed as described in the experimental section at a final enzyme concentration of 10 nM.
In general terms: SEC sorts molecules by how far they enter the pores of the column.

Data set [4] deals with T1, WT c-Src. Briefly: Gel filtration and kinetic assay, WT c-Src. As to conditions: 23 μM inhibitor, 25 minutes, then PD10 desalting. In kind it is biochemical. The procedure: as §4
Data set [5] has as its target T2, T338C c-Src. Briefly: Full protein mass spectrometry of covalent labeling. It is filed as binding. Particulars: two equivalents of inhibitor. The procedure: Protein labeling conditions: Kinase labeling reactions were performed by incubating 30 μL quantities of c-Src variants (in 50 mM Tris pH 8, 100 mM NaCl, 1 mM DTT, 5% glycerol) with two equivalents of inhibitor in DMSO (final DMSO concentration=2.4%). The covalent labeling reaction was quenched by removing 4 μL and adding it to 31 μL of 0.1% formic acid. The sample was then analyzed by ES1-oa-TOF mass spectrometry.

The test system of the next data set is 307 kinases. Description: Kinome-wide profiling (SelectScreen Kinase Profiling Service). As to conditions: compounds at 1 μM, ATP at Km,app. In kind it is biochemical. The procedure:
The percent inhibition results in FIG. were generated with biochemical enzymatic kinase assays using the SelectScreen® Kinase Profiling Service (Life Technologies Corporation, Madison, Wis.). Compounds were assayed at 1 μM at an ATP concentration equal to the ATP Km,app for the assay following the detailed procedures described in the SelectScreen® Customer Protocol and Assay Conditions documents located at www.invitrogen.com/kinaseprofiling.
Compounds that were profiled include, but are not limited to, 3, 4, 9, 13, and 20. […] The exocyclic amine mimics N6 of ATP and plays an important role in a hydrogen bonding interaction with the hinge region of kinases.

Setting [6] is: inhibitor preincubated with Src ten minutes prior to addition of ATP, read-out: T338C c-Src IC50.

Turning to `C=CS(=O)(=O)Nc1cccc(Nc2ncnc3cc(OC)c(OC)cc23)c1` [Compound 19, N-(3-(6,7-dimethoxyquinazolin-4-ylamino)phenyl)ethenesulfonamide], the IC50 (as a rule, the concentration that gives 50% inhibition) at WT c-Src [1] was over 5000 nM; at T338C c-Src [2] (setting [6]), 1000 nM. Besides, the LD50 in “Toxicity profiles (LD50)” came out at 3.92 µM.

As to `C=CS(=O)(=O)Nc1cccc(Cc2nn(C(C)C)c3ncnc(N)c23)c1` [Compound 9, N-(3-((4-amino-1-isopropyl-1H-pyrazolo[3,4-d]pyrimidin-3-yl)methyl)phenyl)ethenesulfonamide], the IC50 is over 5000 nM at WT c-Src [1]; 150 nM on T338C c-Src [2] (ES1 = T338C, read-out: c-Src variant IC50 (nM) ES1); 981 nM at T338C c-Src [2] (T338C c-Src IC50 (nM), preincubation time 2 min); 309 nM at T338C c-Src [2] (T338C c-Src IC50 (nM), preincubation time 20 min); 138 nM at T338C c-Src [2] (T338C c-Src IC50 (nM), preincubation time 40 min); 150 nM on T338C c-Src [2] (setting [6]). For the same molecule, the IC50 at c-Src-ES2 (T338C/V323A) (ES2 = T338C/V323A, read-out: c-Src variant IC50 (nM) ES2) came out at 207 nM; at c-Src-ES3 (T338C/V323S), 424 nM. For the same molecule, on T338C c-Src [2], the “time dependence of inhibition of T338C c-Src” value was “time-dependent manner”. The “change of inhibitor potency upon second-site Val323 mutations” value on c-Src-ES2 (T338C/V323A) (c-Src-ES2 and c-Src-ES3 relative to c-Src-ES1) was “not modulated appreciably”. The “inhibition of v-Src-ES1 in cells (global phosphotyrosine levels)” value on v-Src-ES1 (I338C) is recorded as “inhibited v-Src-ES1 in a dose-dependent manner”. In addition, at I338T v-Src, the “inhibition of I338T v-Src in cells (global phosphotyrosine levels)” value is “neither 9 nor 13 inhibited I338T v-Src”. The “inhibitory activity after gel filtration, T338C c-Src” value at T338C c-Src [3] is “retained”. Besides, the “inhibitory activity after gel filtration, WT c-Src” value at WT c-Src [4] is “lost”. For the same molecule, on T338C c-Src [5], the “covalent labeling / adduct formation by full protein mass spectrometry” value was “specific labeling of T338C relative to WT c-Src”. Further, the “off-target profile in kinome-wide screen” value in the data set on 307 kinases was “relatively few off-target effects”.

The record behind these values is US9353116B2, “Methods and compositions for kinase inhibition” (THE REGENTS OF THE UNIVERSITY OF CALIFORNIA, priority 2010, dated 2016).
